Results published in patent US7754919B2, “Non-nucleoside reverse transcriptase inhibitors” (Roche Palo Alto LLC, priority 2005, dated 2010).

Biological target: HIV-1 RT (Human immunodeficiency virus type 1 group M subtype B, UniProt P03366)
Test: Homopolymer HIV Reverse Transcriptase Assay: Inhibitor IC50 Determination
Assay type: biochemical
Conditions: purified recombinant enzyme, poly(rA)/oligo(dT)16 template-primer, [3H] dTTP, 37° C. 30 min
Procedure: Homopolymer HIV Reverse Transcriptase Assay: Inhibitor IC50 Determination
HIV-1 RT assay was carried out in 96-well Millipore MultiScreen MADVNOB50 plates using purified recombinant enzyme and a poly(rA)/oligo(dT)16 template-primer in a total volume of 50 μL. The assay constituents were 50 mM Tris/HCl, 50 mM NaCl, 1 mM EDTA, 6 mM MgCl2, 5 μM dTTP, 0.15 μCi [^3H] dTTP, 5 μg/ml poly (rA) pre annealed to 2.5 μg/ml oligo (dT)16 and a range of inhibitor concentrations in a final concentration of 10% DMSO. reactions were initiated by adding 4 nM HIV-1 RT and after incubation at 37° C. for 30 min, they were stopped by the addition of 50 μl ice cold 20%TCA and allowed to precipitate at 4° C. for 30 min. The precipitates were collected by applying vacuum to the plate and sequentially washing with 3×200 μl of 10% TCA and 2×200 μl 70% ethanol. Finally, the plates were dried and radioactivity counted in a Packard TopCounter after the addition of 25 μl scintillation fluid per well. IC50's were calculated by plotting % inhibition versus log10 inhibitor concentrations.

SMILES | IC50
Cc1cc(C(=O)NCC(O)CO)ccc1NC(=O)Cc1ccc(Cl)c(Oc2cc(Cl)cc(C#N)c2)c1F (stereo not shown) [Compound I-20, 4-{2-[4-Chloro-3-(3-chloro-5-cyano-phenoxy)-2-fluoro-phenyl]-acetylamino}-N-(2,3-dihydroxy-propyl)-3-methyl-benzamide] | 20.6 nM
Cc1cc(C(=O)NCCN(C)C)ccc1NC(=O)Cc1ccc(Cl)c(Oc2cc(Cl)cc(C#N)c2)c1F [Compound I-5, 4-{2-[4-Chloro-3-(3-chloro-5-cyano-phenoxy)-2-fluoro-phenyl]-acetylamino}-N-(2-dimethylamino-ethyl)-3-methyl-benzamide; compound with trifluoro-acetic acid] | 15.4 nM
Cc1cc(C(=O)NC[C@@H](C)O)ccc1NC(=O)Cc1ccc(Cl)c(Oc2cc(Cl)cc(C#N)c2)c1F [Compound I-10, 4-{2-[4-Chloro-3-(3-chloro-5-cyano-phenoxy)-2-fluoro-phenyl]-acetylamino}-N-((R)-2-hydroxy-propyl)-3-methyl-benzamide] | 18.3 nM
Cc1cc(C(=O)NCc2cccnc2)ccc1NC(=O)Cc1ccc(Cl)c(Oc2cc(Cl)cc(C#N)c2)c1F [Compound I-15, 4-{2-[4-Chloro-3-(3-chloro-5-cyano-phenoxy)-2-fluoro-phenyl]-acetylamino}-3-methyl-N-pyridin-3-ylmethyl-benzamide; compound with trifluoro-acetic acid] | 16.6 nM
Cc1cc(C(=O)NCCN2CCNCC2)ccc1NC(=O)Cc1ccc(Br)c(Oc2cc(Cl)cc(C#N)c2)c1F [Compound I-30, 4-{2-[4-Bromo-3-(3-chloro-5-cyano-phenoxy)-2-fluoro-phenyl]-acetylamino}-3-methyl-N-(2-piperazin-1-yl-ethyl)-benzamide] | 20.9 nM
Cc1cc(C(=O)NCCN2CCC(O)CC2)ccc1NC(=O)Cc1ccc(Br)c(Oc2cc(Cl)cc(C#N)c2)c1F [Compound I-25, 4-{2-[4-Bromo-3-(3-chloro-5-cyano-phenoxy)-2-fluoro-phenyl]-acetylamino}-N-[2-(4-hydroxy-piperidin-1-yl)-ethyl]-3-methyl-benzamide] | 55.2 nM
Cc1cc(C(=O)NS(C)(=O)=O)ccc1NC(=O)Cc1ccc(Br)c(Oc2cc(Cl)cc(C#N)c2)c1F [Compound I-36, 2-[4-Bromo-3-(3-chloro-5-cyano-phenoxy)-2-fluoro-phenyl]-N-(4-methanesulfonylaminocarbonyl-2-methyl-phenyl)-acetamide] | 4.6 nM

Test system: not given
Test: not given
Conditions: not given

SMILES | melting point
CC1(NC(=O)c2ccc(NC(=O)Cc3ccc(Br)c(Oc4cc(Cl)cc(C#N)c4)c3F)c(Cl)c2)CCS(=O)(=O)C1 (stereo not shown) | 95 to 105 °C
N#Cc1cc(Cl)cc(Oc2c(Br)ccc(CC(=O)Nc3ccc(C(=O)NC(=N)N)cc3Cl)c2F)c1 | 207 to 209 °C
CC(CN(C)C)NC(=O)c1ccc(NC(=O)Cc2ccc(Br)c(Oc3cc(Cl)cc(C#N)c3)c2F)c(Cl)c1 (stereo not shown) | 190.1 °C
Cc1cc(C(=O)O)ccc1NC(=O)Cc1ccc(Cl)c(Oc2cc(Cl)cc(C#N)c2)c1F | 287.1 to 289.1 °C
Cc1cc(C(=O)NC[C@@H](C)O)ccc1NC(=O)Cc1ccc(Cl)c(Oc2cc(Cl)cc(C#N)c2)c1F [Compound I-10, 4-{2-[4-Chloro-3-(3-chloro-5-cyano-phenoxy)-2-fluoro-phenyl]-acetylamino}-N-((R)-2-hydroxy-propyl)-3-methyl-benzamide] | 249 to 249.4 °C
Cc1cc(C(=O)NCCN(C)C)ccc1NC(=O)Cc1ccc(Br)c(Oc2cc(C#N)cc(C(F)F)c2)c1F | 205.6 to 206.6 °C
Cc1cc(C(=O)NCCN2CCCC2)ccc1NC(=O)Cc1ccc(Br)c(Oc2cc(Cl)cc(C#N)c2)c1F | 214.7 to 216.9 °C
Cc1cc(C(=O)NC(C)CN(C)C)ccc1NC(=O)Cc1ccc(Br)c(Oc2cc(Cl)cc(C#N)c2)c1F (stereo not shown) | 222 to 223.2 °C
Cc1cc(C(=O)NC2CCNC2)ccc1NC(=O)Cc1ccc(Br)c(Oc2cc(Cl)cc(C#N)c2)c1F (stereo not shown) | 117.8 to 120 °C
CN(C)CCNC(=O)c1ccc(NC(=O)Cc2ccc(Cl)c(Oc3cc(Cl)cc(C#N)c3)c2F)c(Cl)c1 | 202.8 to 203.6 °C
Cc1cc(C(=O)O)ccc1NC(=O)Cc1ccc(Br)c(Oc2cc(Cl)cc(C#N)c2)c1F | 270 to 270.8 °C
Cc1cc(C(N)=O)ccc1NC(=O)Cc1ccc(Cl)c(Oc2cc(Cl)cc(C#N)c2)c1F | 255.9 to 257.1 °C
Cc1cc(C(=O)O)ccc1NC(=O)Cc1ccc(Br)c(Oc2cc(C#N)cc(C(F)F)c2)c1F | 267.9 to 268.1 °C
N#Cc1cc(Cl)cc(Oc2c(Br)ccc(CC(=O)Nc3ccc(C(=O)NCCN(CCO)CCO)cc3Cl)c2F)c1 | 100.1 °C
Cc1cc(C(=O)NCCN)ccc1NC(=O)Cc1ccc(Cl)c(Oc2cc(Cl)cc(C#N)c2)c1F | 207.6 to 208.6 °C
N#Cc1cc(Cl)cc(Oc2c(Cl)ccc(CC(=O)Nc3ccc(C(=O)O)cc3Cl)c2F)c1 | 242 to 243 °C
CC1CC[C@@H](C)N1CCNC(=O)c1ccc(NC(=O)Cc2ccc(Br)c(Oc3cc(Cl)cc(C#N)c3)c2F)c(Cl)c1 (stereo partly shown) | 179 to 181 °C
Cc1cc(C(=O)NCCN2CCS(=O)(=O)CC2)ccc1NC(=O)Cc1ccc(Br)c(Oc2cc(Cl)cc(C#N)c2)c1F | 168.1 to 170.1 °C

SMILES | melting point
Cc1cc(C(=O)NCCN2CCCC2)ccc1NC(=O)Cc1ccc(Br)c(Oc2cc(C#N)cc(C(F)F)c2)c1F | 202.4 to 203.7 °C
N#Cc1cc(Oc2c(Br)ccc(CC(=O)Nc3ccc(C(=O)NCCN4CCCC4)cc3Cl)c2F)cc(C(F)F)c1 | 160 to 165.7 °C
N#Cc1cc(Cl)cc(Oc2c(Br)ccc(CC(=O)Nc3ccc(C(=O)NC4(CO)CC4)cc3Cl)c2F)c1 | 247.7 to 250.1 °C
CC1(NC(=O)c2ccc(NC(=O)Cc3ccc(Br)c(Oc4cc(Cl)cc(C#N)c4)c3F)c(Cl)c2)CCNCC1.O=C(O)C(F)(F)F | 130.5 °C
CCN1CCCC1CNC(=O)c1ccc(NC(=O)Cc2ccc(Br)c(Oc3cc(Cl)cc(C#N)c3)c2F)c(Cl)c1 (stereo not shown) | 212 °C
CC(C)(CN)NC(=O)c1ccc(NC(=O)Cc2ccc(Br)c(Oc3cc(Cl)cc(C#N)c3)c2F)c(Cl)c1.Cl | 158 to 160.8 °C
CN1CCC(C)(NC(=O)c2ccc(NC(=O)Cc3ccc(Br)c(Oc4cc(Cl)cc(C#N)c4)c3F)c(Cl)c2)CC1 | 96 °C
Cc1cc(C(=O)NC[C@@H](C)O)ccc1NC(=O)Cc1ccc(Br)c(Oc2cc(C#N)cc(C(F)F)c2)c1F | 225.5 to 228.8 °C
N#Cc1cc(Cl)cc(Oc2c(Br)ccc(CC(=O)Nc3ccc(C(=O)NCCN4CCCC4)cc3Cl)c2F)c1 | 197.7 to 198.3 °C
N#Cc1cc(Cl)cc(Oc2c(Br)ccc(CC(=O)Nc3ccc(C(=O)N[C@@H]4CS(=O)(=O)C[C@H]4O)cc3Cl)c2F)c1 | 245 °C
CS(=O)(=O)CCNC(=O)c1ccc(NC(=O)Cc2ccc(Br)c(Oc3cc(Cl)cc(C#N)c3)c2F)c(Cl)c1 | 235.5 °C
Cc1cc(C(=O)NCCN2CCNCC2)ccc1NC(=O)Cc1ccc(Br)c(Oc2cc(Cl)cc(C#N)c2)c1F [Compound I-30, 4-{2-[4-Bromo-3-(3-chloro-5-cyano-phenoxy)-2-fluoro-phenyl]-acetylamino}-3-methyl-N-(2-piperazin-1-yl-ethyl)-benzamide] | 126.5 to 127 °C
CC(CO)(CO)NC(=O)c1ccc(NC(=O)Cc2ccc(Br)c(Oc3cc(Cl)cc(C#N)c3)c2F)c(Cl)c1 | 69.1 °C
Cc1cc(C(=O)NCCN2CCC(O)CC2)ccc1NC(=O)Cc1ccc(Br)c(Oc2cc(Cl)cc(C#N)c2)c1F [Compound I-25, 4-{2-[4-Bromo-3-(3-chloro-5-cyano-phenoxy)-2-fluoro-phenyl]-acetylamino}-N-[2-(4-hydroxy-piperidin-1-yl)-ethyl]-3-methyl-benzamide] | 219.6 to 221.6 °C
Cc1cc(C(=O)NCCN(C)C)ccc1NC(=O)Cc1ccc(Cl)c(Oc2cc(Cl)cc(C#N)c2)c1F | 213.3 to 216 °C
Cc1cc(C(=O)NS(C)(=O)=O)ccc1NC(=O)Cc1ccc(Br)c(Oc2cc(Cl)cc(C#N)c2)c1F [Compound I-36, 2-[4-Bromo-3-(3-chloro-5-cyano-phenoxy)-2-fluoro-phenyl]-N-(4-methanesulfonylaminocarbonyl-2-methyl-phenyl)-acetamide] | 244.9 to 246.7 °C
Cc1cc(C(=O)NCCN2CCOCC2)ccc1NC(=O)Cc1ccc(Br)c(Oc2cc(Cl)cc(C#N)c2)c1F | 219.8 to 222 °C
N#Cc1cc(Cl)cc(Oc2c(Br)ccc(CC(=O)Nc3ccc(C(=O)NC4(CN)CC4)cc3Cl)c2F)c1.O=C(O)C(F)(F)F | 148 to 152.4 °C
